# Assay results reported in patent EP1100453B1, “COSMETIC FORMULATION CONTAINING ECTOINE DERIVATIVES, ENZYMES, VITAMINS AND/OR VITAMIN DERIVATIVES” (MERCK PATENT GmbH, priority 1998, dated 2000).
# Read-outs that look alike come from different tables or passages of the source.
# Assays:
# Format in all cases: biochemical
# Superoxiddismutase = experiment: Enzyme stabilisation by Ectoin against temperature stress in vitro: superoxide dismutase activity; conditions: 30 min incubation, Ectoin 1 mol/l, enzyme 0,05 mg/ml, Tris-HCl pH 6,8, difference to enzyme without Ectoin (set to 100 %)
# Description: (§1) Das Grundmedium für die Inkubation ist eine 0,25 molare Tris-HCl-Pufferlösung mit einem pH-Wert von 6,8.
# (§2) Die Bestimmung der Enzymaktivität erfolgt • für Katalase nach der Methode von A. Claiborne [A. Claiborne 'Catalase Activity' in: R.A. Greenwald (Ed.), Handbook of Methods for Oxygen Radical Research, CRC Press, Boca Raton, FL. (1986) 283-284], • für Glutathionperoxidase nach der Methode von L. Flohé und W.A. Günzler [L. Flohé et al., Methods Enzymol. 105 (1989) 114-121], • für Superoxiddismutase nach der Methode von H.P. Nissen und H.W. Kreysel [H.W. Kreysel et al., 'Superoxide Dismutase in Human Semen, Klin. Wochenschr. 61 (1983) 63-65] und • für Elastase nach der Methode von L. Hornebeck und W. Hornebeck [W. Hornebeck et al., 'Characterisation of Human Skin Fibroblasts Elastase Activity', J. Invest. Dermatol. 91 (5) (1988) 472-477].
# (§3) Die Ergebnisse sind für Katalase in Abb. 1, für Glutathionperoxidase in Abb. 2, für Superoxiddimutase in Abb. 3 und für Elastase in Abb. 4 dargestellt.
# Glutathionperoxidase = experiment: Enzyme stabilisation by Ectoin against temperature stress in vitro: glutathione peroxidase activity; conditions: 30 min incubation, Ectoin 1 mol/l, enzyme 0,05 mg/ml, Tris-HCl pH 6,8, difference to enzyme without Ectoin (set to 100 %)
# Description: as §1, §2, §3
# Elastase = experiment: Enzyme stabilisation by Ectoin against temperature stress in vitro: elastase activity; conditions: 30 min incubation, Ectoin 1 mol/l, enzyme 0,05 mg/ml, Tris-HCl pH 6,8, difference to enzyme without Ectoin (set to 100 %)
# Description: as §1, §2, §3
# Katalase = biological target: T1, Katalase (Homo sapiens, UniProt P04040); experiment: Enzyme stabilisation by Ectoin against temperature stress in vitro: catalase activity; conditions: for activation at 1 M: 0.5 h, read-out: Aktivität
# T1 sequence (P04040 1-527): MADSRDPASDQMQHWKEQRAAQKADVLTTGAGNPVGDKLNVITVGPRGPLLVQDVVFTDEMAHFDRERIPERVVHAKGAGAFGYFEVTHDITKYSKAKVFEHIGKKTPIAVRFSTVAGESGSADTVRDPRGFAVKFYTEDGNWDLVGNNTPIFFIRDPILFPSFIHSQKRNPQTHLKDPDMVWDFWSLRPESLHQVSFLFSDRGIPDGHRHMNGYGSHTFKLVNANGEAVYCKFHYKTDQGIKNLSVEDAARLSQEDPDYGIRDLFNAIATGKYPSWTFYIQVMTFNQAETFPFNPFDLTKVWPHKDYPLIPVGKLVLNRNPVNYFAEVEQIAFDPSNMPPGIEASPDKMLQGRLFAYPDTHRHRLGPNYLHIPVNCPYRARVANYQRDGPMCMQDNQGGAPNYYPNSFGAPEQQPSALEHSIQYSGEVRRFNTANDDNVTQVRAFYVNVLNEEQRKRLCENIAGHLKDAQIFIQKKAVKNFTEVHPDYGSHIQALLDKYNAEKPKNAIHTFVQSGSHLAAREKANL
# Description: as §1, §2, §3
compound,measurement,setting,value
"CC1=N[C@H](C(=O)O)CCN1 [Ectoin, (S)-1,4,5,6-Tetrahydro-2-methyl-4-pyrimidincarbonsäure]",Aktivität,Superoxiddismutase; 20 °C,"4,9%"
same,Aktivität,Superoxiddismutase; 40 °C,"14,4%"
same,Aktivität,Superoxiddismutase; 50 °C,"17,4%"
same,Aktivität,Glutathionperoxidase; 20 °C,"3,5%"
same,Aktivität,Glutathionperoxidase; 30 °C,"1,4%"
same,Aktivität,Glutathionperoxidase; 40 °C,"20,8%"
same,Aktivität,Glutathionperoxidase; 50 °C,"39,6%"
same,Aktivität,Elastase; 30 °C,"4,0%"
same,Aktivität,Elastase; 40 °C,"15,0%"
same,Aktivität,Elastase; 50 °C,"25,7%"
same,Aktivität von mit Ectoin behandelter Katalase relativ zu nicht mit Ectoin behandelter Katalase,"Katalase; 50 °C incubation, ratio of activity with Ectoin to activity without Ectoin",mehr als doppelt so aktiv
same,Aktivität,"Katalase; 50 °C, 30 min incubation, Ectoin 1 mol/l, enzyme 0,05 mg/ml, Tris-HCl pH 6,8, difference to enzyme without Ectoin (set to 100 %)","117,9%"
same,activation at 1 M,"Katalase; pH 6, 20 °C, 30 min incubation, Ectoin 1 mol/l, enzyme 0,05 mg/ml, Tris-HCl pH 6,8, difference to enzyme without Ectoin (set to 100 %)",2.5%
same,activation at 1 M,"Katalase; pH 6, 30 °C, 30 min incubation, Ectoin 1 mol/l, enzyme 0,05 mg/ml, Tris-HCl pH 6,8, difference to enzyme without Ectoin (set to 100 %)",10.4%
same,activation at 1 M,"Katalase; pH 6, 40 °C, 30 min incubation, Ectoin 1 mol/l, enzyme 0,05 mg/ml, Tris-HCl pH 6,8, difference to enzyme without Ectoin (set to 100 %)",~25%
same,activation at 1 M,"Katalase; pH 6, 50 °C, 30 min incubation, Ectoin 1 mol/l, enzyme 0,05 mg/ml, Tris-HCl pH 6,8, difference to enzyme without Ectoin (set to 100 %)",~120%
